Values quoted from earlier work in PMC12649378, “Comparative Pharmacokinetics and Safety of a Micellar Chrysin–Quercetin–Rutin Formulation: A Randomized Crossover Trial” (Antioxidants, 2025).
Counter-ions that a name gives are not always drawn.

How the values were obtained:
[1] = not given; remark: listed apart in the source

Row | circulating metabolite concentration exceeding parent chrysin concentrations (in vivo) | aqueous solubility [1] [µg/mL] | weak acidity (pH) [1] | peak plasma levels (humans, 400 mg of unformulated chrysin) [ng/mL] | Structure (SMILES)
1 | ~ 30 fold | – | – | – | O=c1cc(-c2ccccc2)oc2cc(OS(=O)(=O)O)cc(O)c12 [chrysin sulfate]
2 | – | < 1 | ≈ 6.7 | 3 to 16 | O=c1cc(-c2ccccc2)oc2cc(O)cc(O)c12 [chrysin, 5,7-dihydroxyflavone]
